The source of these data is PMC12044326 (Clinical Pharmacology in Drug Development, 2025).

Molecules are shown by their SMILES.

In one series the target is CYP2C19 (Homo sapiens, UniProt P33261). The series is described as follows: Reversible CYP inhibition in human liver microsomes. In general terms: Microsomes from liver hold many membrane-bound enzymes, among them those of drug oxidation.
For series [1] the following is noted: cited from earlier work.
Another series addresses T1, OATP1B1 (Homo sapiens, UniProt Q9Y6L6).
T1 sequence (Q9Y6L6 1-691): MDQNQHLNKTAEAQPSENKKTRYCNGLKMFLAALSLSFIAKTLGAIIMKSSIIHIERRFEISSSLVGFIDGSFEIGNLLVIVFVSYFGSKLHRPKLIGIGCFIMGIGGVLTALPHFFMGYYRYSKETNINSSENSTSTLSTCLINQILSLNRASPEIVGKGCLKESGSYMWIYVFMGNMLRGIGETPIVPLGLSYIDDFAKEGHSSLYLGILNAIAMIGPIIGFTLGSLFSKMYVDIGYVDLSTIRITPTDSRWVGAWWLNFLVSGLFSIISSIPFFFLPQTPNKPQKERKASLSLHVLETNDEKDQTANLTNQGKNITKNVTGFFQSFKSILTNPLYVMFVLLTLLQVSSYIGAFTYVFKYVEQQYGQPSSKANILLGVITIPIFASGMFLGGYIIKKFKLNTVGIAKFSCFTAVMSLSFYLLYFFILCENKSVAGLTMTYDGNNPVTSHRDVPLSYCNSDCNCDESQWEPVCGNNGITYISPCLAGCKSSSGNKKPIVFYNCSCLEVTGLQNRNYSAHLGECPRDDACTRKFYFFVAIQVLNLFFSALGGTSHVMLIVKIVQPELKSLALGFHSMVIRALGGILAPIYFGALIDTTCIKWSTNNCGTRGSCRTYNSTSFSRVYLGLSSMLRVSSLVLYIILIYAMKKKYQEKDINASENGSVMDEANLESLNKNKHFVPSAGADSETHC

A further series can be described thus: physchem. The format is physicochemical. The source says:
[…]. […] […]. […] […]

In a further series the test system is human hepatocytes. The following applies: both, 10 μmol/L.
The next series has as its target T2, UGT2B4 (Homo sapiens, UniProt P06133).
T2 sequence (P06133 24-528): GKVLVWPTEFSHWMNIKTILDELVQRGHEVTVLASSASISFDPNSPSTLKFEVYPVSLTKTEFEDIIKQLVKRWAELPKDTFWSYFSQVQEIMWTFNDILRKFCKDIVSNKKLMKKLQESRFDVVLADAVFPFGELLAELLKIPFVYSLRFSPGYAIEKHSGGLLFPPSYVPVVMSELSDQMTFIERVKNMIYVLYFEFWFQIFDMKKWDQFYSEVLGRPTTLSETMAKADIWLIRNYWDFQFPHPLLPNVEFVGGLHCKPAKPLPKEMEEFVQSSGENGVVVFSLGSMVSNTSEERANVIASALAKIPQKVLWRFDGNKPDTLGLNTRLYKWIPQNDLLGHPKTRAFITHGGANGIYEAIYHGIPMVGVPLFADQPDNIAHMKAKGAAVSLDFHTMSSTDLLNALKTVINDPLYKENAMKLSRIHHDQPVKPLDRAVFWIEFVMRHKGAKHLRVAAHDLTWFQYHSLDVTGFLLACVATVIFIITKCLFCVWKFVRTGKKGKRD
Also on record: with alamethicin-pretreated HLMs (0.5 mg/mL); tissue Sekisui-XenoTech; host or cells: pooled human liver microsomes (200 donors). Particulars: predicted by combining in vitro phenotyping and human ADME data; cited from earlier work.

Series [2] addresses T3, UGT1A9 (Homo sapiens, UniProt O60656).
T3 sequence (O60656 26-530): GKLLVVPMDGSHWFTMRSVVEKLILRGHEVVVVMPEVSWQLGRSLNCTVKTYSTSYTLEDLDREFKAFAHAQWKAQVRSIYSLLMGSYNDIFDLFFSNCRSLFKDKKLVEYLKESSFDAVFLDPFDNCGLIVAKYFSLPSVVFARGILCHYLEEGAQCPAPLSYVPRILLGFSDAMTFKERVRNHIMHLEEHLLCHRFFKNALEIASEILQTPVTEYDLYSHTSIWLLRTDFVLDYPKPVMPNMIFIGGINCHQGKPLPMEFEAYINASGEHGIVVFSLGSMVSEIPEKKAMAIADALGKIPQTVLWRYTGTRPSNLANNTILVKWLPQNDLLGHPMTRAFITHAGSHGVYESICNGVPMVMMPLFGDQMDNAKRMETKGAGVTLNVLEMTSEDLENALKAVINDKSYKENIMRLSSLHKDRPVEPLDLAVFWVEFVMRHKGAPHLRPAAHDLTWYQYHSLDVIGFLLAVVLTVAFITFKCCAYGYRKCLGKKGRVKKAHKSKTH
Also on record: with alamethicin-pretreated HLMs (0.5 mg/mL); tissue Sekisui-XenoTech; host or cells: pooled human liver microsomes (200 donors). The following applies: predicted by combining in vitro phenotyping and human ADME data; cited from earlier work.

The nature of a further series: in vitro. The following applies: human, Caco-2.
Series [3] deals with T3, UGT1A9. Nature of the series: PBPK elimination inputs (retrograde model, fm, KM sensitivity). The following applies: PBPK input.
The test system of another series is CYP2B6. The following applies: hepatocytes.
The mark [4] stands for this setting: 300 mg single oral dose, geometric mean, clinical ADME study, ref 5 of supplement.

CYP2C19, sequence (P33261 whole entry): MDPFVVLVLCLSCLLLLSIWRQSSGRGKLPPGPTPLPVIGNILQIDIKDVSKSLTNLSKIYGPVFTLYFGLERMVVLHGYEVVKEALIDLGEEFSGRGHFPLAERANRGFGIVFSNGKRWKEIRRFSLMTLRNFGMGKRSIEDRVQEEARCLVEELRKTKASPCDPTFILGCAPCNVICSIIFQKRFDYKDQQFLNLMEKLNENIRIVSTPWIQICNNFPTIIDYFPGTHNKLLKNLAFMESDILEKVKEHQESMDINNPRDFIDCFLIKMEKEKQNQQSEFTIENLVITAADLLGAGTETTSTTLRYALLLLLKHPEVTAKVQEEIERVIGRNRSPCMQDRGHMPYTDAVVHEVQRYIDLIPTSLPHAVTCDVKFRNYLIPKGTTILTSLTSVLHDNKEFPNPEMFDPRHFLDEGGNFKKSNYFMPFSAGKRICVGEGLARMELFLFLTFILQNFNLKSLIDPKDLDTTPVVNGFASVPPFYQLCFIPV
Experimental for CYP2B6: respectively; XenoTech) were treated once daily for 3 consecutive days and cultured according
to previously described methods.2-4 Each culture well was treated with supplemented modified Chee's medium (0.2 mL) containing 0.1% v/v d imethylsulfoxide (DM SO ; vehicle control),
μmol/L) or 1 of 3 known human CYP enzyme inducers (omeprazole 50 μmol/L, phenobarbital
Cultures were visualized with a
representative well from each treatment group was photographed with a PAXcam 5 (MIS, Inc.
Villa Park, IL, USA) digital camera to document morphological integrity.
β-mercaptoethanol (1:100), and the cell lysates were stored at −80°C. For each hepatocyte preparation, media from 3 wells per treatment group were aspirated, and 250 μL buf f er RLT was added to each well. The cell lysates were mixed by shaking (10 minutes at 800 rpm) and total RNA was isolated with a MagMAX-96 (Ambion/ Thermo Fisher Scientific) for Microarrays Kit using the RNeasy Mini Kit (Qiagen Inc., Germantown, MD, USA). The analysis of RNA integrity was carried out with the RNA 6000 Nano Assay Kit on an Agilent 2100 Bioanalyzer (Agilent Technologies, Inc., Santa Clara, CA, USA). […]
prepared samples were stored at −20°C prior to analysis by quantitative real-time (qRT)- […]
Experimental for in vitro: Caco-2 cells were obtained from American Type Culture Collection. Prior to the experiments,
the cells were seeded on 55 cm2 bottom culture dishes (Corning). The cells were cultured at
37°C in a humidified CO2 (5%) incubator and routinely passaged about once a week. Caco-2
cultured in the medium at 37°C in a humidified CO2 (5%) incubator for 23 days to prepare cell
The medium was changed 4 days after seeding and then changed every 2 or 3 days
thereafter. Before the experiment, the integrity of the Caco-2 cell monolayer was checked by
measuring the trans-epithelial electrical resistance (TEER) value. The TEER values of cell
In the transport experiments, the medium of top side of the cells (apical side) and basal
side of the cells (basal side) were replaced with the DMSO-HBSS solution, the inhibitor-HBSS
control), or the test solutions (digoxin and mannitol as substrates). The volumes of the replaced
solutions were 300 μL for the apical side and 1 mL for the basal side. The DMSO-HBSS […]
of the solution in each basal side (receiver side) were collected and measured for the
radioactivity using an LSC. […]
collected and measured for the radioactivity using an LSC. […]
side (receiver side) were collected and measured for the radioactivity using an LSC. […]
in each apical side and each basal side (donor side) were collected and measured for the
radioactivity using an LSC.

Consider `O=C(c1cccnc1-c1ccncc1)N1CCC(O)(Cc2ccccc2)CC1` [Soticlestat], for which affinity on CYP2C19 was put at a Ki of 9.5 µM. The fumic at CYP2C19 (human) was determined as 0.88. Besides, the “inhibition of CYP2C19” value against CYP2C19 (microsomes) is on record as “low double‐digit micromolar values”. In series [1] (setting [4]), the AUC0-inf observed was 1294 ng·h/mL and the Cmax observed was 995 ng/mL. Also, the tmax observed in [1] (300 mg single oral dose, median, clinical ADME study, ref 5 of supplement) is 31.8 min. Moreover, the “CLIV (mean IV clearance)” value in series [1] (IV microdose [14C] soticlestat 50 µg with oral 300 mg) is 28.7 L/h. In series [1] (human radiolabeled ADME study), the “CYP contribution to clearance” value is 9.5% and the “cleared by UGT metabolism” value was 90.5%. Besides, the “CLR (mean renal clearance)” value in series [1] (single oral dose [14C] soticlestat 300 mg, healthy volunteers) is recorded as 0.22 L/h. In addition, the “substrate for OATP1B1” value on OATP1B1 is reported as “not a substrate”. Also, in the series “physchem”, the logP (commonly the decadic logarithm of the partition coefficient of the neutral form, usually between octanol and water) came to 1.4; the pKa – broadly, the negative logarithm of the acid dissociation constant – was determined as 3.37. Further, the Compound type result in “physchem” (PBPK input) is on record as “Monoprotic base”. In the series with human hepatocytes, the metabolized by glucuronidation is recorded as about 66% and the “oxidation via CYP3A” value is reported as about 33%. The “fm by UGT2B4” value at UGT2B4 is 81.2%. For the same molecule, at UGT1A9 [2], the “fm by UGT1A9” value is on record as 9.3%. Further, the Papp (as a rule, a coefficient for how fast a substance crosses the barrier) in the series “in vitro” is 23.4 ×10⁻⁶ cm/s. In addition, in the series on major CYP enzymes, the “time‐ or metabolism‐dependent inhibition” value was “did not exhibit time‐ or metabolism‐dependent inhibition”. The fmUGT1A9 on UGT1A9 [3] is on record as 0.1. Also, the “induction of CYP2B6” value with CYP2B6 is “nor did soticlestat induce”.
